Experimental findings from patent publication US9334267B2, “RAF inhibitor compounds” (Deciphera Pharmaceuticals, LLC, priority 2012, dated 2016) are described below.

The target in one test is T1, human wild type C-Raf (Homo sapiens, UniProt P04049).
T1 construct: made in house
As to the kind of experiment: Enzymatic assay of C-Raf kinase activity (Raf/MEK1 ATPase, coupled PK/LDH, A340). The format is biochemical. The conditions noted are these: read-out: Enzyme IC50, nM C-Raf. The protocol: Test compounds are evaluated for their inhibitory activities against one or more of human wild type B-Raf, human wild type C-Raf, human B-Raf V600E, human B-Raf V600E+T529I or human B-Raf V600E+G468A. T529I is a threonine to isoleucine B-Raf gatekeeper mutation and G468A is a B-Raf secondary mutation at G1403C in exon 11. The enzymatic assays of B-Raf, C-Raf and B-Raf mutations evaluate a property of Raf and MEK1 complex, which in the presence of ATP, catalyzes an enhanced ATP hydrolysis (Rominger, et al, Arch. Biochem. Biophys. 2007, 464: 130-137; US Patent Publication No. 2006/0211073). The ADP formed is monitored by the well-known coupled PK/LDH (pyruvate kinase/lactate dehydrogenase) system in the form of NADH oxidation, which can be monitored and detected spectrophotometrically by absorbance at 340 nm (A340; for principal of the method see Schindler et al, Science, 2000, 289: 1938-1942). Raf activated MEK1 ATPase activity is a property shared by all forms of Raf proteins.
Test compounds are evaluated for their inhibitory activities against one or more of wild type B-Raf, wild type C-Raf, B-Raf V600E, B-Raf V600E+T529I and B-Raf V600E+G468A. T529I is a B-Raf gatekeeper mutation and G468A is a B-Raf secondary mutation. The enzymatic assays of B-Raf, C-Raf and B-Raf mutations evaluate a property of Raf and MEK1 complex, which in the presence of ATP, catalyzes an enhanced ATP hydrolysis (Rominger, et al, Arch. Biochem. Biophys. 2007, 464: 130-137). The ADP formed is monitored by the well-known coupled PK/LDH (pyruvate kinase/lactate dehydrogenase) system in the form of NADH oxidation, which can be monitored and detected by absorbance at 340 nm (A340; for principal of the method see Schindler et al, Science, 2000, 289: 1938-1942). Raf activated MEK1 ATPase activity is a property shared by all forms of Raf proteins. In the B-Raf wild type enzymatic assay, the reaction mixture contains 1.2 nM B-Raf, 30 nM MEK1, 1000 uM ATP, 3.5 units (per 100 ul) of PK, 5 units (per 100 ul) of LDH, 1 mM phosphoenol pyruvate (PEP), and 280 uM of NADH. In the C-Raf assay, the reaction mixture contains 0.6 nM C-Raf, 26 nM MEK1, 2000 uM ATP, and the same amount of PK, LDH, PEP and NADH as above. In the B-Raf V600E assay, the reaction mixture contains […] B-Raf V600E, 26 nM MEK1, 200 uM ATP and the same amount of PK, LDH, PEP and NADH as above. In the B-RafV600E+T529I assay, the reaction mixture contains 6.2 nM B-Raf V600E+T529I, 30 nM MEK1, 200 uM ATP and the same amount of PK, LDH, PEP and NADH as above. In the B-Raf V600E+G468A assay, the reaction mixture contains 3.5 nM B-Raf, 30 nM MEK1, 200 uM ATP and the same amount of PK, LDH, PEP and NADH as above. All assays are started by mixing the above mixture with test compound and monitoring at A340 continuously for approximately 5 hr. […] In the aforementioned assays, the enzyme constructs can be screened prior to or after cleavage of the N-terminal purification tag.

A further test concerns A375 cells. Briefly: A375 cell proliferation assay (CellTiter-Blue/resazurin). Format: cell-based. The conditions noted are these: Homo sapiens, A-375, V600E mutation, read-out: Cell Proliferation Inhibition IC50, nM A375. The method, then:
(§1) A375 cells (catalog #CRL-1619) are obtained from the American Type Culture Collection (ATCC, Manassas, Va.). Briefly, cells are grown in DMEM High Glucose supplemented with 10% characterized fetal bovine serum (Invitrogen, Carlsbad, Calif.) and 1% Penicillin/Streptomycin/L-Glutamine at 37 degrees Celsius, 5% CO2, and 95% humidity. Cells are allowed to expand until reaching 70-95% confluency at which point they are subcultured or harvested for assay use. A serial dilution of test compound is dispensed into a 384-well black clear bottom plate in triplicate. Six hundred twenty-five cells are added per well in 50 μL complete growth medium in the 384-well plate. Plates are incubated for 67 hours at 37 degrees Celsius, 5% CO2, and 95% humidity. At the end of the incubation period, 10 μL of a 440 μM solution of resazurin (Sigma, St. Louis, Mo.) in PBS is added to each well of the plate and plates are incubated for an additional 5 hours at 37 degrees Celsius, 5% CO2, and 95% humidity. Plates are read on a Synergy2 reader (Biotek, Winooski, Vt.) using an excitation of 540 nm and an emission of 600 nm. Data is analyzed using Prism software (Graphpad, San Diego, Calif.) to calculate IC50 values.
(§2) The A375, HT-29, and Colo-205 cells (ATCC) harbor a V600E mutation.

In another test the test system is Colo205 cells. Briefly: Colo-205 cell proliferation assay (resazurin). To be noted: Homo sapiens; Colo-205 cells, V600E mutation; read-out: Cell Proliferation Inhibition IC50, nM Colo-205. Format: cell-based. The protocol:
as §1, with “Colo205 cells” for “A375 cells”, “(catalog #HB-8307)” for “(catalog #CRL-1619)”, “in RPMI 1640” for “in DMEM High Glucose”, “Carlsbad, Calif.), 1 mM sodium pyruvate,” for “Carlsbad, Calif.)”, “reaching 30-60%” for “reaching 70-95%”, “triplicate. One thousand two-hundred fifty” for “triplicate. Six hundred twenty-five”
as §2

The test system of the next test is Sk-Mel-2 cells. Briefly: SK-Mel-2 cell proliferation assay (resazurin). Format: cell-based. The conditions noted are these: Homo sapiens, N-Ras mutation B-Raf wild type, read-out: Cell Proliferation Inhibition IC50, nM SK-Mel-2.
The test system of the next test is A375res cells. As to the kind of experiment: Proliferation assay in vemurafenib-resistant melanoma cells A375res. The conditions noted are these: Homo sapiens, 72 h, read-out: absolute IC50 values.

T1 sequence (P04049 whole entry): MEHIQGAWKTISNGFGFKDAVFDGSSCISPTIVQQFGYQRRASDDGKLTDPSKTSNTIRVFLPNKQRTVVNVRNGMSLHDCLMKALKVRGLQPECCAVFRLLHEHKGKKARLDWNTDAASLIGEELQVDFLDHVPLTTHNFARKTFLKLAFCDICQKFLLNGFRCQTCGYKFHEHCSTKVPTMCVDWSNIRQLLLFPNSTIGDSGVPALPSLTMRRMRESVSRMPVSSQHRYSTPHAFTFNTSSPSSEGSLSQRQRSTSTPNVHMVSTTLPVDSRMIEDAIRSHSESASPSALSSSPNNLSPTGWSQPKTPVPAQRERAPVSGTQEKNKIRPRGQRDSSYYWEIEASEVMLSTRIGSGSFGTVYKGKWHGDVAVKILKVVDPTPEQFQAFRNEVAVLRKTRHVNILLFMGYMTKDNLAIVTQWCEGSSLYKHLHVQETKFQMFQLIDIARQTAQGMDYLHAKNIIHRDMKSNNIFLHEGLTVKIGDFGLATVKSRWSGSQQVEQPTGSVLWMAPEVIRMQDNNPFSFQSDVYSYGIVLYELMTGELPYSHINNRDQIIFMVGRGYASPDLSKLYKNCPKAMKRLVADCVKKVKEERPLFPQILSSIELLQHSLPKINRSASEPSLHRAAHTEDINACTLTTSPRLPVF

With `CNc1ncc2cc(-c3cc(NC(=O)NCCC(C)(C)F)c(F)cc3C)cnc2n1` [Example 34, 1-(3-Fluoro-3-methyl-butyl)-3-[2-fluoro-4-methyl-5-(2-methylaminopyrido[2,3-d]pyrimidin-6-yl)phenyl]urea], the IC50 was less than 150 nM on human wild type C-Raf; 100 to 1000 nM in the test with A375 cells; 100 to 1000 nM in the test on Colo205 cells; 100 to 1000 nM in the test on Sk-Mel-2 cells; 0.015 to 1.1 µM in the test with A375res cells.

Turning to `CNc1ncc2cc(-c3cc(NC(=O)NCCC(C)(C)C(F)(F)F)c(F)cc3C)c(C)nc2n1` [Example 27, 1-(2-Fluoro-4-methyl-5-(7-methyl-2-(methylamino)pyrido[2,3-d]pyrimidin-6-yl)phenyl)-3-(4,4,4-trifluoro-3,3-dimethylbutyl)urea], the IC50 was less than 150 nM at human wild type C-Raf; less than 100 nM with A375 cells; less than 100 nM in the test with Colo205 cells; 100 to 1000 nM with Sk-Mel-2 cells; 0.015 to 1.1 µM with A375res cells.

Turning to `CNc1ncc2cc(-c3cc(NC(=O)NCCC4(C(F)(F)F)CC4)c(F)cc3C)c(C)nc2n1` [Example 30, 1-(2-Fluoro-4-methyl-5-(7-methyl-2-(methylamino)pyrido[2,3-d]pyrimidin-6-yl)phenyl)-3-(2-(1-(trifluoromethyl)cyclopropyl)ethyl)urea], the IC50 at human wild type C-Raf is less than 150 nM; in the test with A375 cells, less than 100 nM; in the test with Colo205 cells it was less than 100 nM; in the test on Sk-Mel-2 cells it was 100 to 1000 nM; with A375res cells it was 0.015 to 1.1 µM.

Take `CCNc1ncc2cc(-c3cc(NC(=O)NCCC(C)(C)F)c(F)cc3C)c(C)nc2n1` [Example 26, 1-(5-(2-(Ethylamino)-7-methylpyrido[2,3-d]pyrimidin-6-yl)-2-fluoro-4-methylphenyl)-3-(3-fluoro-3-methylbutyl)urea]: the IC50 is less than 150 nM at human wild type C-Raf; 100 to 1000 nM in the test on A375 cells; 100 to 1000 nM with Colo205 cells; 100 to 1000 nM in the test with Sk-Mel-2 cells; 0.015 to 1.1 µM with A375res cells.

As for `CNc1ncc2cc(-c3cc(NC(=O)NCCC4(C)CC4)c(F)cc3C)c(C)nc2n1` [Example 24, 1-(2-Fluoro-4-methyl-5-(7-methyl-2-(methylamino)pyrido[2,3-d]pyrimidin-6-yl)phenyl)-3-(2-(1-methylcyclopropyl)ethyl)urea], the IC50 on human wild type C-Raf is less than 150 nM; with A375 cells it was less than 100 nM; in the test with Colo205 cells, less than 100 nM; in the test with Sk-Mel-2 cells, 100 to 1000 nM; in the test with A375res cells it was 0.015 to 1.1 µM.

For the compound `Cc1cc(F)c(NC(=O)NCCC(C)(C)C)cc1-c1cc2cnc(NCCN3CCOCC3)nc2nc1C` [Example 21, 1-(3,3-Dimethylbutyl)-3-(2-fluoro-4-methyl-5-(7-methyl-2-((2-morpholinoethyl)amino)pyrido[2,3-d]pyrimidin-6-yl)phenyl)ure], the IC50 on human wild type C-Raf was less than 150 nM; in the test with A375 cells it was less than 100 nM; in the test with Colo205 cells, less than 100 nM; with Sk-Mel-2 cells, 100 to 1000 nM; with A375res cells it was 0.015 to 1.1 µM.

On to `Cc1cc(F)c(NC(=O)NCCC(C)(C)F)cc1-c1cc2cnc(N)nc2nc1C` [Example 28, 1-(5-(2-Amino-7-methylpyrido[2,3-d]pyrimidin-6-yl)-2-fluoro-4-methylphenyl)-3-(3-fluoro-3-methylbutyl)urea], for which the IC50 at human wild type C-Raf is less than 150 nM; in the test on A375 cells it was 1000 to 10000 nM; in the test on Colo205 cells it was 100 to 1000 nM; with Sk-Mel-2 cells, 1000 to 10000 nM; with A375res cells, 0.015 to 1.1 µM.

As for `CNc1ncc2cc(-c3cc(NC(=O)NCCC(C)(C)F)c(F)cc3C)c(C)nc2n1` [Example 4, 1-(3-Fluoro-3-methylbutyl)-3-(2-fluoro-4-methyl-5-(7-methyl-2-(methylamino)pyrido[2,3-d]pyrimidin-6-yl)phenyl)urea], the IC50 on human wild type C-Raf was less than 150 nM; in the test on A375 cells it was 100 to 1000 nM; with Colo205 cells, 100 to 1000 nM; in the test with Sk-Mel-2 cells it was 100 to 1000 nM; in the test on A375res cells, 0.015 to 1.1 µM.
